Values quoted from earlier work, collected in patent publication US6686317B2, “Supported fluridone compositions and methods” (SePro Corporation, priority 2001, dated 2004).
Read-outs that look alike come from different tables or passages of the source.

System: aquatic plants

1-methyl-3-phenyl-5-3-(trifluoromethyl)phenyl-4(1H)-pyridinone [fluridone]
concentration to which plant species are usually susceptible (other species susceptible only to higher concentrations): 150 ppb
concentration to which plant species are usually susceptible (some (more susceptible) species, as low as): about 5 ppb
